Experimental data from US20230035606A1, “AN ACCURATE AND COMPREHENSIVE CARDIAC TROPONIN I ASSAY ENABLED BY NANOTECHNOLOGY AND PROTEOMICS” (Wisconsin Alumni Research Foundation, priority 2019, published 2023).
Side chains are listed from the residue outwards. Ends that are not written are not given here. BAPTES = N-(3-(triethoxysilyl)propyl)buta-2,3-dienamide; Fe3O4 nanoparticle = not defined here

B1: Fe3O4-BAPTES-Peptide NPs (NP-Pep): high affinity cTnI-binding peptide HWQIAYNEHQWQC on BAPTES-silanized Fe3O4 nanoparticles (peptide)
peptide: HWQIAYNEHQWQC([BAPTES-Fe3O4 nanoparticle])
modifications: not fully specified; reading uncertain
notes: Synthetic peptide (GenScript) found by phage display and in silico evolution (literature); Many copies on each nanoparticle (about 1.5 peptide/nm^2 in the text); In the assay it stood on the particle, not free; also called NP-Peptide; Fe3O4-Peptide NPs

Legend:
cTnI = cTnI (Homo sapiens, UniProt P19429); conditions: peptide evolved by phage display and in silico evolution; targets cTnI residues 114-144; read-out: binding affinity (Kd); cited from earlier work
Sequence of cTnI (P19429 whole entry, the tested form may be a part): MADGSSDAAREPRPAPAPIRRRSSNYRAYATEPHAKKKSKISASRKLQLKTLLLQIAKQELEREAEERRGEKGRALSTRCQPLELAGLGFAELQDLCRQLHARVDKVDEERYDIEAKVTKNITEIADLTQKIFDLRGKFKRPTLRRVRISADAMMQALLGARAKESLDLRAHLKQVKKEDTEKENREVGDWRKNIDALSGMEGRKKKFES

[1] = biological target: T1, human serum albumin (HSA) (human, UniProt P02768 25-609); experiment: nanoparticle pull-down from human serum (10 mg) spiked with cTnI, SDS-PAGE and top-down LC/MS
T1 construct: mature; also called C-HSA; C-C-HSA
T1 sequence (P02768 25-609): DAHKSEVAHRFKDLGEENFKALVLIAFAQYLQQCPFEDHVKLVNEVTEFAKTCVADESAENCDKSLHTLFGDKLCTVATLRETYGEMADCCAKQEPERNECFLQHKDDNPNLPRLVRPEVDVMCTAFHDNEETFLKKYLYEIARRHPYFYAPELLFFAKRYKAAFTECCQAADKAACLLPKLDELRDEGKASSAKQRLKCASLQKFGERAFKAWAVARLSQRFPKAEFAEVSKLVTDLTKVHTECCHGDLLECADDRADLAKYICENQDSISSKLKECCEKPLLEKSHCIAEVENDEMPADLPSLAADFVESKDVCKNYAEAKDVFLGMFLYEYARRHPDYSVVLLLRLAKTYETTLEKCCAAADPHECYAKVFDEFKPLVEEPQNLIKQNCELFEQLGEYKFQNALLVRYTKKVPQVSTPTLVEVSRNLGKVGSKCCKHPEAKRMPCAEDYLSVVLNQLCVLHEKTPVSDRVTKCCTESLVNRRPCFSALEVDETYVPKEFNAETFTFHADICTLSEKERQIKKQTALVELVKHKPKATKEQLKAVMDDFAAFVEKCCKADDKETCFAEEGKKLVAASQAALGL
Description: To this end, cTnI enrichment was performed from human serum spiked-in with the cTnI extracted from the same donor, DCM, and post-mortem heart samples as in FIGS. 4-6. The endogenous cTnI obtained from the different human heart samples were used as the reference cTnI sources and served to mimic cTnI found in the blood.
Comparison of the cTnI enrichment performance of the NP-Pep platform against the agarose-mAb or agarose-Pep platform from human serum spiked with cTnI. The enrichment workflow was performed in a cold room held at 4° C. to minimize possible artifactual protein modifications, such as oxidation. NP-Control (NP-BAPTES),NP-Pep (Fe₃O₄-BAPTES-Peptide), Agarose-Control beads (no coupling), Agarose-Pep beads, and Agarose-mAb beads were incubated with in a protein loading mixture containing human male AB serum (10 mg) and sarcomeric tissue extract obtained from healthy donor heart tissue, diseased heart tissue of DCM, and post-mortem heart tissue containing 306 ng cTnI, 482 ng cTnI, and 465 ng cTnI in the protein extract, respectively. cTnI values were determined by ELISA quantification as previously described. The loading mixture (L), flow through (F), and elution mixture (E) were collected, desalted using a 10 kDa MWCO, and buffer exchanged prior to SDS-PAGE gel analysis or LC-MS analysis as described in the tissue enrichment protocol.

Molecule | Kd (cTnI) [pM] | binding result [1]
HWQIAYNEHQWQ | 270 | –
B1 | – | no binding
